Read-outs that look alike come from different tables or passages of the source.
Legend:
HT-29 = test: Inhibition of cell growth by counting cells, HT-29; assay type: cell-based, human; details: Homo sapiens, HT-29, 72 h, read-out: IC50 (molar) HT-29
In short: (§1)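 Counts are net cells per well, averaged from duplicate wells, obtained by Coulter counting after trypsinization following 72 h of exposure at 37 °C. Seeding was 1×10^4 cells per well in EMEM/5% FCS with varied sample concentrations, alongside untreated growth controls. IC50 values derive from dose-response curves of % growth.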

P-388 = test: Inhibition of cell growth by counting cells, P-388; assay type: cell-based, mouse; details: Mus musculus, P388, 72 h, read-out: IC50 (molar) P-388
In short: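 IC50 is the sample concentration halving growth, taken from dose-response curves of cell counts (Coulter counter, duplicate wells) relative to drug-free cultures. P-388 (DBA/2 mouse lymphoid neoplasm) cells plated at 1×10^4 per well in EMEM with 5% FCS plus test sample.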

MEL-28 = test: Inhibition of cell growth by counting cells, MEL-28; assay type: cell-based, human; details: Homo sapiens, SK-MEL-28, 72 h, read-out: IC50 (molar) MEL-28
In short: as §1

A-549 = test: Inhibition of cell growth by counting cells, A-549; assay type: cell-based, human; details: Homo sapiens, A549, 72 h, read-out: IC50 (molar) A-549
In short: as §1

DU-145 = test: Inhibition of cell growth by counting cells, DU-145; assay type: cell-based, human; details: Homo sapiens, DU-145, 72 h, read-out: IC50 (molar) DU-145
Method: 1°.—Inhibition of Cell Growth by Counting Cells.
This form of the assay employs 24 well multidishes of 16 mm diameter (Bergeron, 1984; Schroeder, 1981). The tumor cell lines employed are: P-388 (ATCC CCL 46), suspension culture of a lymphoid neoplasm from a DBA/2 mouse; A-549 (ATCC CCL 185), monolayer culture of a human lung carcinoma; HT-29 (ATCC HTB-38), monolayer culture of a human colon carcinoma; MEL-28 (ATCC HTB-72), monolayer culture of a human melanoma and DU-145 (ATCC HTB-81), monolayer culture of a human prostate carcinoma.
Cells were maintained, in logarithmic phase of growth in Eagle's Minimum Essential Medium, with Earle's Balanced Salts, with non-essential amino acids, with 2.0 mM L-Glutamine, without sodium bicarbonate (EMEM/neaa), supplemented with 10% Fetal Calf Serum (FCS), 10^−2 M. sodium bicarbonate and 0.1 U/l penicillin G+0.1 g/l streptomycin sulfate. For the experiments, cells are harvested from subconfluent cultures using trypsin and resuspended in fresh medium before plating.
A-549, HT-29, MEL-28 and DU-145 cells were seeded into 16 mm diameter wells at 1×10^4 cells per well in 1 ml aliquots of EMEM 5% FCS containing different concentrations of the sample to be tested. A separate set of cultures without drug was seeded as control of growth, to ensure that cells remained in exponential phase of growth. All determinations are carrying out in duplicate. After three days of incubation at 37° C., 5% CO2 in a 98% humid atmosphere cells were stained with 0.1% crystal violet. An approximately IC50 was determined by comparing the growth in wells with drug to the growth in wells control.
For quantifying the activity, after the incubation time, cells are trypsinized and counted in a Coulter Counter ZM. All counts (net cells per well), represent the average of duplicate wells. % G, percent of growth relative to cultures without drug. The results of these assays are used to generate dose-response curves from which more precise IC50 values are determined (sample concentration which produces 50% cell growth inhibition).
Obtained results may predict the usefulness of a certain drug as a potential cancer treatment. For this technique, compounds which show IC50 values smaller than 1 μg/ml are selected to continue with further studies. IC50's data allow to predict that not only could a drug be cystostatic, but also it could have a potential in terms of tumor reduction.

Structure (SMILES)	IC50 (HT-29) [nM]	IC50 (P-388) [nM]	IC50 (MEL-28) [nM]	IC50 (A-549) [nM]	IC50 (DU-145) [nM]	IC50 (HT-29; three days of incubation) [nM]	IC50 (P-388; three days of incubation) [nM]	IC50 (MEL-28; three days of incubation) [nM]	IC50 (A-549; three days of incubation) [nM]	IC50 (DU-145; three days of incubation) [nM]
COc1cc2c(cc1OCc1ccccc1)CCN[C@]21CS[C@@H]2c3c(OC(C)=O)c(C)c4c(c3[C@H](COC1=O)N1C2[C@H]2c3c(cc(C)c(OC)c3OCc3ccccc3)C[C@@H]([C@@H]1C#N)N2C)OCO4 (stereo partly shown) [Compound 44]	105	105	105	105	105					
CCCCCCCCCCCCCCCC(=O)Oc1c(C)c2c(c3c1[C@H]1SC[C@]4(NCCc5cc(OC(=O)OC(C)(C)C)c(OC)cc54)C(=O)OC[C@@H]3N3C1[C@H]1c4c(cc(C)c(OC)c4OC(=O)CCCCCCCCCCCCCCC)C[C@@H]([C@@H]3C#N)N1C)OCO2 (stereo partly shown) [Compound 122]						830	830	830	830	830
COc1cc2c(cc1OC(=O)/C=C/c1ccccc1)CCN[C@]21CS[C@@H]2c3c(OC(C)=O)c(C)c4c(c3[C@H](COC1=O)N1C2[C@H]2c3c(cc(C)c(OC)c3O)C[C@@H]([C@@H]1C#N)N2C)OCO4 (stereo partly shown) [Compound 8]					0.556	0.556	0.111	0.111	0.111	
CCCCCCCC(=O)Oc1cc2c(cc1OC)[C@@]1(CS[C@@H]3c4c(OC(C)=O)c(C)c5c(c4[C@H](COC1=O)N1C3[C@@H]3N[C@@H](Cc4cc(C)c(OC)c(O)c43)[C@@H]1C#N)OCO5)NCC2 (stereo partly shown) [Compound 205]						0.113	0.113	0.113	0.113	0.113
COc1cc2c(cc1OC(=O)OC(C)(C)C)CCN[C@]21CS[C@@H]2c3c(OC(=O)/C=C/c4ccccc4)c(C)c4c(c3[C@H](COC1=O)N1C2[C@H]2c3c(cc(C)c(OC)c3O)C[C@@H]([C@@H]1C#N)N2C)OCO4 (stereo partly shown) [Compound 113]						10.4	10.4	10.4	10.4	10.4
CCOc1cc2c(cc1OC)[C@@]1(CS[C@@H]3c4c(OC(C)=O)c(C)c5c(c4[C@H](COC1=O)N1C3[C@H]3c4c(cc(C)c(OC)c4OCC)C[C@@H]([C@@H]1O)N3C)OCO5)NCC2 (stereo partly shown) [Compound 88]						12.2	12.2	12.2	12.2	12.2
COc1cc2c(cc1OC(=O)/C=C/c1ccccc1)CCN[C@]21CS[C@@H]2c3c(OC(C)=O)c(C)c4c(c3[C@H](COC1=O)N1C2[C@H]2c3c(cc(C)c(OC)c3OC(=O)OC(C)(C)C)C[C@@H]([C@@H]1C#N)N2C)OCO4 (stereo partly shown) [Compound 49]					0.999	0.999	0.999	0.999	0.999	
CCCCCCCCCCCCCCCC(=O)Oc1cc2c(cc1OC)[C@@]1(CS[C@@H]3c4c(OC(C)=O)c(C)c5c(c4[C@H](COC1=O)N1C3[C@H]3c4c(cc(C)c(OC)c4O)C[C@@H]([C@@H]1O)N3C)OCO5)NCC2 (stereo partly shown) [Compound 60]						5	10	5	5	5
CCCCCCCCCCCCCCCC(=O)Oc1c(C)c2c(c3c1[C@H]1SC[C@]4(NCCc5cc(OC(=O)OC(C)(C)C)c(OC)cc54)C(=O)OC[C@@H]3N3C1[C@H]1c4c(cc(C)c(OC)c4O)C[C@@H]([C@@H]3C#N)N1C)OCO2 (stereo partly shown) [Compound 121]						469	469	469	469	469
C=CCOc1cc2c(cc1OC)[C@@]1(CS[C@@H]3c4c(OC(C)=O)c(C)c5c(c4[C@H](COC1=O)N1C3[C@H]3c4c(cc(C)c(OC)c4OCC=C)C[C@@H]([C@@H]1O)N3C)OCO5)NCC2 (stereo partly shown) [Compound 90]						11.9	11.9	11.9	11.9	11.9
CCCCCCCC(=O)Oc1cc2c(cc1OC)[C@@]1(CS[C@@H]3c4c(OC(C)=O)c(C)c5c(c4[C@H](COC1=O)N1C3[C@H]3c4c(cc(C)c(OC)c4OC(=O)CCCCCCC)C[C@@H]([C@@H]1C#N)N3C)OCO5)NCC2 (stereo partly shown) [Compound 15]						97.8	97.8	97.8	97.8	97.8
C=CCOc1cc2c(cc1OC)[C@@]1(CS[C@@H]3c4c(OC(C)=O)c(C)c5c(c4[C@H](COC1=O)N1C3[C@H]3c4c(cc(C)c(OC)c4OCC=C)C[C@@H]([C@@H]1C#N)N3C)OCO5)NCC2 (stereo partly shown) [Compound 42]					11.8	11.8	11.8	11.8	11.8	
CCCCCCCC(=O)Oc1c(C)c2c(c3c1[C@H]1SC[C@]4(NCCc5cc(OC(=O)OC(C)(C)C)c(OC)cc54)C(=O)OC[C@@H]3N3C1[C@H]1c4c(cc(C)c(OC)c4O)C[C@@H]([C@@H]3C#N)N1C)OCO2 (stereo partly shown) [Compound 119]						10.5	10.5	10.5	10.5	10.5
COc1cc2c(cc1OC(=O)OCc1ccccc1)CCN[C@]21CS[C@@H]2c3c(OC(C)=O)c(C)c4c(c3[C@H](COC1=O)N1C2[C@H]2c3c(cc(C)c(OC)c3O)C[C@@H]([C@@H]1C#N)N2C)OCO4 (stereo partly shown) [Compound 27]						0.111	0.111	0.111	0.111	0.111
CCCC(=O)Oc1cc2c(cc1OC)[C@@]1(CS[C@@H]3c4c(OC(C)=O)c(C)c5c(c4[C@H](COC1=O)N1C3[C@H]3c4c(cc(C)c(OC)c4O)C[C@@H]([C@@H]1C#N)N3C)OCO5)NCC2 (stereo partly shown) [Compound 7]						0.595	0.119	0.119	0.119	0.595
CCCOc1cc2c(cc1OC)[C@@]1(CS[C@@H]3c4c(OC(C)=O)c(C)c5c(c4[C@H](COC1=O)N1C3[C@H]3c4c(cc(C)c(OC)c4OCCC)C[C@@H]([C@@H]1C#N)N3C)OCO5)NCC2 (stereo partly shown) [Compound 40]					1170	1170	1170	1170	1170	
COc1cc2c(cc1OC(=O)OC(C)(C)C)CCN[C@]21CS[C@@H]2c3c(OCc4ccccc4)c(C)c4c(c3[C@H](COC1=O)N1C2[C@H]2c3c(cc(C)c(OC)c3O)C[C@@H]([C@@H]1C#N)N2C)OCO4 (stereo partly shown) [Compound 134]	0.544	0.544	0.544	0.544	0.544					
CCCCCCCC(=O)Oc1c(C)c2c(c3c1[C@H]1SC[C@]4(NCCc5cc(O)c(OC)cc54)C(=O)OC[C@@H]3N3C1[C@H]1c4c(cc(C)c(OC)c4O)C[C@@H]([C@@H]3O)N1C)OCO2 (stereo partly shown) [Compound 168]						0.591	0.591	0.591	0.591	0.591
CCCOc1cc2c(cc1OC)[C@@]1(CS[C@@H]3c4c(OC(C)=O)c(C)c5c(c4[C@H](COC1=O)N1C3[C@H]3c4c(cc(C)c(OC)c4OCCC)C[C@@H]([C@@H]1O)N3C)OCO5)NCC2 (stereo partly shown) [Compound 89]						591	591	591	591	591
COc1cc2c(cc1OC(=O)/C=C/c1ccccc1)CCN[C@]21CS[C@@H]2c3c(OC(C)=O)c(C)c4c(c3[C@H](COC1=O)N1C2[C@H]2c3c(cc(C)c(OC)c3OC(=O)/C=C/c3ccccc3)C[C@@H]([C@@H]1C#N)N2C)OCO4 (stereo partly shown) [Compound 10]					9.7	9.7	9.7	9.7	9.7	
